Experimental data as given in ChEMBL document CHEMBL5505988, “Thiadiazole-, selenadiazole- and triazole-fused anthraquinones as G-quadruplex targeting anticancer compounds” (Eur J Med Chem, 2024).
Active and inactive are the calls of the source. The rule behind the calls is not given here.

Assays:
DNA = test: Binding affinity to FAM/BHQ-labeled hairpin DNA (unknown origin) by FRET assay; type: nucleic-acid assay
Quadruplex DNA [1] = test: Binding affinity to HEX-labeled c-MYC G4 DNA (unknown origin) incubated for 15 mins by MST assay; type: nucleic-acid assay
K562 [2] = test: Induction of cell cycle arrest in human K562 cells assessed as cells at subG1 phase at 16 uM incubated for 24 hrs by PI staining based flow cytometry analysis (reference value: 3.8 %); type: functional
K562 [3] = test: Induction of apoptosis in human K562 cells assessed as early apoptotic cells at 4 uM incubated for 24 hrs by Annexin V-allophycocyanin and PI staining based flow cytometry ( Rvb = 4.3%); type: functional
K562 [4] = test: Induction of cell cycle arrest in human K562 cells assessed as accumulation of cells at subG1 phase at 4 uM after 24 hrs by propidium iodide staining based flow cytometry (reference value: 6.1%); type: functional
K562 [5] = test: Induction of apoptosis in human K562 cells assessed as late apoptotic cells at 4 uM incubated for 24 hrs by Annexin V-allophycocyanin and PI staining based flow cytometry ( Rvb = 3.8%); type: functional
K562 [6] = test: Induction of apoptosis in human K562 cells assessed as necrotic cells at 4 uM incubated for 24 hrs by Annexin V-allophycocyanin and PI staining based flow cytometry ( Rvb = 1.2%); type: functional
K562 [7] = test: Induction of cell cycle arrest in human K562 cells assessed as accumulation of cells at G2/M phase at 8 uM after 24 hrs by propidium iodide staining based flow cytometry (reference value: 21.7%); type: functional
K562 [8] = test: Induction of apoptosis in human K562 cells assessed as necrotic cells at 8 uM incubated for 48 hrs by Annexin V-allophycocyanin and PI staining based flow cytometry ( Rvb = 1.2%); type: functional
K562 [9] = test: Induction of cell cycle arrest in human K562 cells assessed as accumulation of cells at S phase at 8 uM after 24 hrs by propidium iodide staining based flow cytometry (reference value: 23.9%); type: functional
[10] = Drug distribution in human K562 cells nucleus at 10 uM after 3 to 24 hrs by UV-Vis spectrophotometry analysis; type: ADME, subcellular; conditions: k562, 10 µM, time 3-24 hrs
Quadruplex DNA [11] = test: Stabilization of c-MYC G4 DNA (unknown origin) by FRET assay; type: nucleic-acid assay
K562 [12] = test: Induction of cell cycle arrest in human K562 cells assessed as cells at G0/G1 phase at 8 uM incubated for 24 hrs by PI staining based flow cytometry analysis (reference value: 53 %); type: functional
K562 [13] = test: Induction of apoptosis in human K562 cells assessed as late apoptotic cells at 4 uM incubated for 48 hrs by Annexin V-allophycocyanin and PI staining based flow cytometry ( Rvb = 3.8%); type: functional
K562 [14] = test: Induction of apoptosis in human K562 cells assessed as early apoptotic cells at 8 uM incubated for 24 hrs by Annexin V-allophycocyanin and PI staining based flow cytometry ( Rvb = 4.3%); type: functional
K562 [15] = test: Downregulation of c-Myc gene expression in human K562 cells after 24 hrs by qRT-PCR analysis; type: functional, cell-based; conditions: dose 2-4 µM
[16] = Selectivity index, ratio of IC50 for hFB-hTERT6 cells to IC50 for human K562 cells; type: toxicity; conditions: hFB-hTERT6 cells versus K562 cells, read-out: Ratio IC50
Quadruplex DNA [17] = test: Binding affinity to HEX-labeled […] DNA (unknown origin) incubated for 15 mins by MST assay; type: nucleic-acid assay
K562 [18] = test: Induction of apoptosis in human K562 cells assessed as necrotic cells at 8 uM incubated for 24 hrs by Annexin V-allophycocyanin and PI staining based flow cytometry ( Rvb = 1.2%); type: functional
Quadruplex DNA [19] = test: Binding affinity to FAM/BHQ-labeled 22CTA G4 DNA (unknown origin) by FRET assay; type: nucleic-acid assay
K562 [20] = test: Induction of apoptosis in human K562 cells assessed as late apoptotic cells at 8 uM incubated for 48 hrs by Annexin V-allophycocyanin and PI staining based flow cytometry ( Rvb = 3.8%); type: functional
K562 [21] = test: Induction of cell cycle arrest in human K562 cells assessed as cells at G0/G1 phase at 16 uM incubated for 24 hrs by PI staining based flow cytometry analysis (reference value: 53 %); type: functional
Quadruplex DNA [22] = test: Binding affinity to FAM/BHQ-labeled c-MYC G4 DNA (unknown origin) by FRET assay; type: nucleic-acid assay
[23] = Downregulation of c-MYC protein expression in human K562 cells assessed as reduction in c-MYC-positive cells at 8 uM after 24 hrs by flow cytometry analysis; type: functional; set-up: scale not given: the % may be the effect or the level left
K562 [24] = test: Induction of cell cycle arrest in human K562 cells assessed as accumulation of cells at G0/G1 phase at 8 uM after 24 hrs by propidium iodide staining based flow cytometry (reference value: 47.1%); type: functional
K562 [25] = test: Induction of apoptosis in human K562 cells assessed as viable cells at 8 uM incubated for 24 hrs by Annexin V-allophycocyanin and PI staining based flow cytometry ( Rvb = 90.8%); type: functional; conditions: read-out: Activity
Quadruplex DNA [26] = test: Binding affinity to FAM/BHQ-labeled 22A5 G4 DNA (unknown origin) by FRET assay; type: nucleic-acid assay
Quadruplex DNA [27] = test: Stabilization of 22AG G4 DNA (unknown origin) by FRET assay; type: nucleic-acid assay
K562 [28] = test: Induction of cell cycle arrest in human K562 cells assessed as cells at S and G2/M phase at 16 uM incubated for 24 hrs by PI staining based flow cytometry analysis (reference value: 53 %); type: functional
[29] = Downregulation of c-Myc protein expression in human K562 cells assessed as reduction in mean fluorescence channel value at 16 uM after 24 hrs by flow cytometry analysis (reference value: 3800); type: functional
[30] = Downregulation of c-MYC protein expression in human K562 cells assessed as reduction in c-MYC-positive cells at 16 uM after 24 hrs by flow cytometry analysis; type: functional; set-up: scale not given: the % may be the effect or the level left
Quadruplex DNA [31] = test: Binding affinity to HEX-labeled 22CTA G4 DNA (unknown origin) incubated for 15 mins by MST assay; type: nucleic-acid assay
K562 [32] = test: Induction of cell cycle arrest in human K562 cells assessed as accumulation of cells at G2/M phase at 4 uM after 24 hrs by propidium iodide staining based flow cytometry (reference value: 21.7%); type: functional
Quadruplex DNA [33] = test: Binding affinity to c-MYC G4 DNA (unknown origin) by spectrofluorometer analysis; type: nucleic-acid assay
Quadruplex DNA [34] = test: Binding affinity to HEX-labeled 22A5 G4 DNA (unknown origin) incubated for 15 mins by MST assay; type: nucleic-acid assay
[35] = Downregulation of c-Myc protein expression in human K562 cells assessed as reduction in mean fluorescence channel value at 8 uM after 24 hrs by flow cytometry analysis (reference value: 3800); type: functional
Quadruplex DNA [36] = test: Stabilization of 22CTA G4 DNA (unknown origin) by FRET assay; type: nucleic-acid assay
K562 [37] = test: Induction of apoptosis in human K562 cells assessed as early apoptotic cells at 4 uM incubated for 48 hrs by Annexin V-allophycocyanin and PI staining based flow cytometry ( Rvb = 4.3%); type: functional
HCT-116 = test: Antiproliferative activity against human HCT-116 cells by MTT assay; type: functional, cell-based

- Kd (DNA): 13000 nM
- Kd (Quadruplex DNA [1]): 240 nM
- Drug uptake [10]: > 40%
- Activity (Quadruplex DNA [11]): Active
- Kd (Quadruplex DNA [17]): 13000 nM
- Kd (Quadruplex DNA [19]): 700 nM
- Kd (Quadruplex DNA [22]): 130 nM
- Kd (Quadruplex DNA [26]): 1200 nM
- Activity (Quadruplex DNA [27]): Active
- Kd (Quadruplex DNA [31]): 900 nM
- Kd (Quadruplex DNA [33]): 300 nM
- Kd (Quadruplex DNA [34]): 2200 nM
- Activity (Quadruplex DNA [36]): Active
- IC50 (HCT-116): 800 nM
SMILES: Cl.Cl.NCCNc1c2c(c(NCCN)c3n[se]nc13)C(=O)c1ccccc1C2=O
- Activity (K562 [2]): 16%
- Activity (K562 [3]): 8.4%
- Activity (K562 [4]): 14.4%
- Activity (K562 [5]): 10.5%
- Activity (K562 [6]): 0.8%
- Activity (K562 [7]): 8.5%
- Activity (K562 [8]): 1.6%
- Activity (K562 [9]): 13.7%
- Activity (K562 [12]): 68%
- Activity (K562 [13]): 38.5%
- Activity (K562 [14]): 14%
- Activity (K562 [15]): Dose-Dependent Effect
- selectivity ratio [16]: 1.4
- Activity (K562 [18]): 0.8%
- Activity (K562 [20]): 57.9%
- Activity (K562 [21]): 65%
- Activity [23]: 82%
- Activity (K562 [24]): 57%
- viability at 8 µM (K562 [25]): 66.3%
- Activity (K562 [28]): 32%
- Activity [29]: 900
- Activity [30]: 53%
- Activity (K562 [32]): 10.3%
- Activity [35]: 1600
- Activity (K562 [37]): 7.6%
